Source: patent publication US20250368678A1, “19-NOR-C3,3-DISUBSTITUTED C21-AZACYCLO-S[…] AND METHOD FOR USING SAME” (SHANDONG LUYE PHARMACEUTICAL CO., LTD., priority 2022, published 2025)
Like-named read-outs stand apart in the source and are kept apart here.

Columns and labels:
[1] = target: T1, α1β2γ2 GABA receptors (α1β2γ2-CHO-TRex stable cell strain) (Homo sapiens, UniProt P14867+P47870); assay: Whole-cell patch clamp, intrasynaptic functional activity (positive allosteric regulation of GABA-induced current); format: cell-based; conditions: patch clamp -60 mV, GABA at EC10-20, α1β2γ2-CHO-TRex cells
T1 construct: expressed in transfected cells
T1 sequence (P14867 28-456): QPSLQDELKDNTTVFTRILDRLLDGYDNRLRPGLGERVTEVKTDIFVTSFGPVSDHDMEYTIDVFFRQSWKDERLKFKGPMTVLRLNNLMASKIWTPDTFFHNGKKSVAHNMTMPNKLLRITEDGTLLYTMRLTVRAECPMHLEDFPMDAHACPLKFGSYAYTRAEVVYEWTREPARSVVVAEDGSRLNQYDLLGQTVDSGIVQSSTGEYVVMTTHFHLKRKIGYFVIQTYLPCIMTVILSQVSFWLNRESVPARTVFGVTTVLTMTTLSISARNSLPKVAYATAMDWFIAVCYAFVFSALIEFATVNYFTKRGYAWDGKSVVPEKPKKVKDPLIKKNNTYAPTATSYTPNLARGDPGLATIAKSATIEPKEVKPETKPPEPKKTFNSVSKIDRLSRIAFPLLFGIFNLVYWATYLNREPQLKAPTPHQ
T1 sequence (P47870 25-512 limits assumed): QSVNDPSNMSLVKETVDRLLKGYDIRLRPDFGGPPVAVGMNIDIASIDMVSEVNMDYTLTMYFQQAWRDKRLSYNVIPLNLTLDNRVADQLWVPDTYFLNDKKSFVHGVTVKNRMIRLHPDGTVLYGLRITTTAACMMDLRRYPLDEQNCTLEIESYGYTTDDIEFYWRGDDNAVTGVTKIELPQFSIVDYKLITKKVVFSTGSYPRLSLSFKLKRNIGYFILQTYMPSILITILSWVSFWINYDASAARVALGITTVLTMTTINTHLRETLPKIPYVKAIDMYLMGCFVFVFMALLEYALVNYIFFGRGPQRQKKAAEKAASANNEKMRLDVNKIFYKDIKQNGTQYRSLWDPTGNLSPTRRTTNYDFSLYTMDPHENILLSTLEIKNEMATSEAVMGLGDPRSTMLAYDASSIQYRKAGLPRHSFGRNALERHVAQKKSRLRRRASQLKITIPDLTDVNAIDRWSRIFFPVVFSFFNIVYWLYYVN
T1 sequence (P18507 40-475 partner): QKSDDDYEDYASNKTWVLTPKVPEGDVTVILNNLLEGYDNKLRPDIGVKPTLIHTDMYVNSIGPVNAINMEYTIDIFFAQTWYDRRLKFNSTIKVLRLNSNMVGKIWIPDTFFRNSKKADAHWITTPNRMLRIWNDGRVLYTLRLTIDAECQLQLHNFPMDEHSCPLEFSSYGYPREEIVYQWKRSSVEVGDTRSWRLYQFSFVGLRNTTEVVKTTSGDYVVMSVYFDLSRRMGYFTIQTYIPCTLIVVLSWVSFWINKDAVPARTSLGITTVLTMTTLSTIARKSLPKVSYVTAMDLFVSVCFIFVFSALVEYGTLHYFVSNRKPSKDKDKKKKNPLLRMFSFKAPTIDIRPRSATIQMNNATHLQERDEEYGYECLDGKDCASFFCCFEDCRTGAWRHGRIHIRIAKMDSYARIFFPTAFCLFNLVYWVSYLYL
How it was run: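 Tetracycline-induced stable lines were used: α4β3δ in HEK-FlpIn-TRex and α1β2γ2 in CHO-TRex. Whole-cell patch clamp was run at −60 mV with GABA at EC10-20 ([…]) and compound perfused for 30 s before GABA, with extracellular pH 7.4. Fold increase in GABA current over ≥5 concentrations on ≥3 cells gave EC50 and Emax by Hill fit.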

[2] = In vitro liver microsomal stability assay, human; format: in vitro ADME
How it was run: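 Test compound at […] was incubated at 37° C with 0.5 mg/mL rat or human liver microsomes, 1 mM NADPH and 3 mM MgCl2, in triplicate, sampled 0–60 min. Remaining parent was quantified by LC-MS/MS, giving half-life and microsomal and hepatic intrinsic clearance.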

[3] = Pharmacokinetic study in CD-1 mice (plasma and brain); format: in vivo
Method: Male CD-1 mice weighing about 25 g were randomly divided into groups of 3.
The intravenous (IV) dose was 1 mg/kg, and the intragastric (IG) dose was 5 mg/kg. Animals were fasted for 12 h before administration, with free access to water, and were fed together 3 h post-administration. Blood samples of about 0.15 mL were collected at 5 min (intravenous), 15 min, 30 min, 1 h, 2 h, 4 h, 8 h, 12 h, and 24 h post-administration into heparinized EP tubes and centrifuged at 13,500 rpm for 10 min to separate the plasma. Mouse brain tissue samples were collected after cardiac perfusion at 30 min, 2 h, and 8 h. After pretreatment, the samples were analyzed by LC-MS/MS to determine the concentration of the test compound in the plasma and brain, and pharmacokinetic parameters were calculated.

[4] = male, mouse, IV 1 mg/kg, plasma
[5] = male, mouse, plasma, IV 1 mg/kg
[6] = male, mouse, plasma, po, IG 5 mg/kg
[7] = male, mouse, po, IG 5 mg/kg, plasma

## C[C@@]1(O)CC[C@H]2[C@H](CC[C@@H]3[C@@H]2CC[C@]2(C)[C@@H](C(=O)Cn4cnn(-c5cc(F)nc(F)c5)c4=O)CC[C@@H]32)C1 [Compound 41]
[1]
  EC50: 145 nM
  Emax: 762%
[2]; Human liver microsomes
  CLint scaled at 1 µM: < 6.75 mL/min/kg
  half-life at 1 µM: > 186 min
[2]; Human liver microsomes 0.5 mg/mL, NADPH
  Remaining amount % at 60 min: 98.2%
[2]; Human liver microsomes, read-out: CLint(mic)
  microsomal CLint at 1 µM: < 7.5 µL/min/mg
[3]; IG 5 mg/kg
  brain penetration capability (in words): strong
[3]; [4]
  AUC(0-inf): 4320 ng·h/mL
  AUC(0-t): 3660 ng·h/mL
  C0: 490 ng/mL
[3]; male, mouse, brain, oral, IG 5 mg/kg, 30 min, read-out: Brain concentration
  concentration at 30 min: 847 ± 36 ng/g
[3]; male, mouse, brain, oral, IG 5 mg/kg, 2 h, read-out: Brain concentration
  concentration at 2 h: 1920 ± 978 ng/g
[3]; male, mouse, brain, oral, IG 5 mg/kg, 8 h, read-out: Brain concentration
  concentration at 8 h: 1590 ± 233 ng/g
[3]; male, mouse, brain/plasma, oral, IG 5 mg/kg, 30 min, read-out: Brain-to-blood ratio
  Kp at 30 min: 0.9
[3]; male, mouse, brain/plasma, oral, IG 5 mg/kg, 2 h, read-out: Brain-to-blood ratio
  Kp at 2 h: 1.5
[3]; male, mouse, brain/plasma, oral, IG 5 mg/kg, 8 h, read-out: Brain-to-blood ratio
  Kp at 8 h: 1.8
[3]; [5]
  MRT last: 7.9 h
  half-life: 540 min
[3]; male, mouse, plasma, oral, IG 5 mg/kg vs IV 1 mg/kg, read-out: F (absolute bioavailability)
  bioavailability: 109%
[3]; male, mouse, plasma, oral, IG 5 mg/kg, 30 min, read-out: Plasma concentration
  concentration at 30 min: 936 ± 119 ng/mL
[3]; male, mouse, plasma, oral, IG 5 mg/kg, 2 h, read-out: Plasma concentration
  concentration at 2 h: 1280 ± 345 ng/mL
[3]; male, mouse, plasma, oral, IG 5 mg/kg, 8 h, read-out: Plasma concentration
  concentration at 8 h: 891 ± 72 ng/mL
[3]; [6]
  MRT last: 9.8 h
  Tmax: 1 h
  half-life: 990 min
[3]; [7]
  AUC(0-inf): 31300 ng·h/mL
  AUC(0-t): 20000 ng·h/mL
  Cmax: 1670 ng/mL
